Laboratory results from article PMC10901950, “Neuroprotective and Anti-inflammatory Effects of Rubiscolin-6 Analogs with Proline Surrogates in Position 2” (Neurochemical Research, 2023).
Numbered stars: 1 amine (or outer) side, 2 acyl side, 3 side chain; on linkers, the order of the positions; unused ones are H or OH. Square brackets hold non-standard residues; d marks the D form. Ends that are not written are not given here. Peptide text beside a SMILES is read from it. Nip(3R) = O=C([C@@H]1CCCN([*:1])C1)[*:2]; Dmt = Cc1cc(O)cc(C)c1C[C@H](N)C(=O)O; Inp = O=C(O)C1CCNCC1

Tests used:
[1] = test system: Male Swiss albino CD1 mice; test: Spontaneous locomotor activity after icv injection; type: in vivo, mouse; conditions: healthy mice, recording from 10 min after injection, 8-10 mice per group
Experimental: Male Swiss albino CD1 mice (JANVIER LABS, Le Genest-Saint-Isle, France), weighing 20–26 g, were used in the in vivo experiments. The animals were housed in Makrolon cages (L: 40 cm, W: 25 cm, H: 18 cm; 20 mice/cage), with free access to a standard semisynthetic laboratory diet (RM3, SDS, DIETEX-France, Saint-Gratien, France). All animals were kept in a ventilated room, at a temperature of 22 ± 1 °C, under a 12-h light/12-h dark cycle (lights on between 7:00 a.m. and 7:00 p.m.).
Intracerebroventricular (icv) injections (10 µL/mouse) of R-6 and its analogs were performed in the left brain ventricle of manually immobilized mice, with a Hamilton microsyringe ([…], Hamilton, Bonaduz, Switzerland) connected to a needle (length: 3.5 mm, diameter: 0.5 mm), as described elsewhere. Intracerebroventricular injections were performed by an experienced investigator, who frequently controlled the regularity and success of the injections using a methylene blue dye and observed (after sacrifice and frontal brain sectioning) that the injection was successful in more than 95% of trials. It was also verified in several animals, after sacrifice, that the mark of the needle puncture on the parietal bone was located at least 1.5 mm behind the bregma and at least 2.5 mm before the lambda, with laterality between 1 and 2 mm relative to the brain median line. This corresponds to stereotaxic coordinates of the left lateral ventricle in Lehmann’s atlas for mice (Lehmann, 1974): anteriority 2.95e4.15 mm, laterality 0.95e2 mm, and depth 3e4.5 mm. All drugs for icv administration were dissolved in 0.9% NaCl just before treatment. The icv injection method was approved by the Regional Ethical Committee for Animal Experimentation (Normandy; no. N/10-04-04-12).
Tested peptides were dissolved in DMSO and diluted with saline solution to the desired concentrations.
Locomotor activity was assessed automatically in a computerized actimeter (Omnitech Electronics, Inc., Columbus, Ohio, USA) which monitored horizontal displacements and vertical movements. Ten minutes after the icv injection, mice were placed individually in 20 × 20 × 30 cm compartments in a dimly illuminated and quiet room, and then motor activity was recorded. The responses were expressed as the number of crossed beams by the mouse during three consecutive 20 min periods.

Caspase-3 = Caspase-3 activity in 6-OHDA-treated SH-SY5Y cells; type: cell-based, human; conditions: 6-OHDA 100 µM, 6 h
Experimental: Caspase-3 activity was assessed using “Caspase-3 fluorometric assay” (Sigma, St. Louis, MO, USA) with minor changes adapted by Silva et al.. The cells were treated with 6-OHDA (100 µM) for 6 h in the presence or absence of peptides. After this period, the culture medium was removed, and cells were rinsed with ice-cold PBS and collected by centrifugation at 3300×g for 5 min. The pellets were resuspended in lysis buffer, incubated for about 20 min on ice and finally centrifuged at 22,500×g, 4 °C, for 20 min. Cell lysates were processed following the manufacturer’s protocol, and fluorescence was read at wavelengths of 360 nm (excitation) and 460 nm (emission). Caspase-3 activity was calculated through the curve slope and presented as Δ fluorescence (a.u.)/mg of protein/min). Staurosporine (STAU, 1 µM) was used as positive control.

[2] = test system: LPS-stimulated RAW 264.7 cells; test: Lipid peroxidation in LPS-stimulated RAW 264.7 cells (DPPP probe); type: cell-based, mouse; conditions: 24 h; for decrease of membrane lipids' oxidation: lowest concentration used (0.1 µM)
Experimental: The level of lipid peroxidation was evaluated after RAW 264.7 cells incubation with peptides for 24 h. Then, the cells were loaded with 50 µM diphenyl-1-pyrenylphosphine (DPPP) probe for 15 min, and fluorescence was read at 360 nm excitation and 460 nm emission wavelengths.

SH-SY5Y cells = test: Neuroprotection in 6-OHDA-treated SH-SY5Y cells (MTT); type: cell-based, human; conditions: for neuroprotection after pre-treatment with LY 294002: LY 294002 (PI3-K inhibitor) 20 µM; for neuroprotection after pre-treatment with LY 294002 / neuroprotective effect after pre-treatment with PD 98059: 30 min before peptide and 6-OHDA 100 µM; for neuroprotective effect after pre-treatment with PD 98059: PD 98059 (MEK 1 inhibitor) 50 µM; for peptide neuroprotection with opioid receptor antagonists: β-FNA 10 µM or NLT 10 µM 30 min before peptide (1 and/or 10 µM) and 6-OHDA 100 µM, 24 h
Experimental: The neuroprotective experiments were performed in an in vitro model of a human neuroblastoma cell line (SH-SY5Y) obtained from the German Collection of Microorganisms and Cell Cultures GmbH (DSMZ) Bank (ACC 209). Cells were cultured in Dulbecco’s Modified Eagle’s Medium: Nutrient Mixture F12 (DMEM:F12) supplemented with 1% antibiotic/antimycotic (Amphotericin B, Penicillin and Streptomycin) (Biowest, Nuaillé, France) and 10% (v/v) Fetal Bovine Serum (FBS) (Biowest, Riverside, MO, USA). The anti-inflammatory experiments were performed in an in vitro model of mouse macrophage-like RAW 264.7 cells, purchased from American Type Culture Collection (ATCC, Manassas, VA, USA). Cells were maintained in DMEM medium (Gibco™, Grand Island, NY) and supplemented with 10% bovine calf serum (BCS) (Gibco™, Grand Island, NY) and 1% penicillin–streptomycin (Sigma-Aldrich, St. Louis, MO, USA). Cell cultures were kept at 37 °C in 5% CO2/humidified air.
Cells were incubated with peptides (0.1–10 µM) for 24 h to assess their cytotoxic activity. In the neuroprotective model, SH-SY5Y cells were exposed to 6-OHDA (100 µM) in the absence/presence of peptide at non-toxic concentrations (0.1–10 µM). When needed, a 30 min pre-incubation step with β-funaltrexamine (β-FNA, µ-opioid receptor antagonist, 10 µM), naltrindole (NLT, δ-opioid receptor antagonist, 10 µM), 2’-amino-3’-methoxyflavone (PD 98059, MAPK kinase 1 (MEK 1) inhibitor, 50 µM) or 2-(4-morpholinyl)-8-phenyl-4H-1-benzopyran-4-one (LY 294002, PI3-K inhibitor, 20 µM). Stimulation was terminated by aspiration of the medium and adding 100 µL MTT (1.2 mM) per well. Cells were incubated for 1 h at 37 °C. After this time, MTT was removed, and 100 µL DMSO was added. The resulting absorbance was read in a microplate reader (Biotek, Epoch/2 microplate reader, Winooski, VT, USA) at 570 nm.
Cell metabolic activity (cytotoxicity) was calculated as the percentage of the value obtained for cells incubated with compounds compared to control cells treated with the medium.

[3] = test system: LPS-stimulated RAW 264.7 cells; test: Nitric oxide production in LPS-stimulated RAW 264.7 cells (Griess); type: cell-based, mouse; conditions: LPS 1 µg/mL, 24 h
Experimental: The level of NO production was determined in RAW 264.7 cells. Briefly, after cells attachment, they were treated with LPS (Millipore Sigma, Darmstadt, Germany) at 1 µg/mL for 24 h, and then the peptides were added for an additional 24 h. After cells’ treatment, the medium was collected, and the accumulation of NO metabolite in the cell culture supernatant was measured using Griess reagent (1% sulfanilamide and 0.1% naphthylethylenediamine dihydrochloride; Sigma Aldrich), where 50 µL of the supernatant was mixed with 50 µL of Griess reagent (40 mg/mL) in a 96-well plate. After incubation at room temperature and darkness for 10 min, the absorbance was measured at 540 nm. Cells treated with LPS without samples were used as the positive control of the inflammatory response.

[4] = peptide 0.1 µM (lowest concentration)

Compound | effect on spontaneous (horizontal) locomotor activity [1] | effect on Caspase-3 activity induced by 6-OHDA (Caspase-3; peptides 0.1-10 µM) | effect on lipid peroxidation ([2]; 0.1-10 µM) | decrease of membrane lipids' oxidation [2] | neuroprotection after pre-treatment with LY 294002 (SH-SY5Y cells) | neuroprotective effect after pre-treatment with PD 98059 (SH-SY5Y cells) | peptide neuroprotection with opioid receptor antagonists (SH-SY5Y cells) | effect on LPS-induced NO production [3, 4] | inhibition of peroxidation ([2]; 0.1 µM) | effect on LPS-induced NO production ([3]; peptide 10 µM) | effect on Caspase-3 activity induced by 6-OHDA (Caspase-3; peptide 10 µM) | NO level reached (relative to unstimulated control) ([3]; LPS alone exceeded 330%)
YPLDLF [R-6, rubiscolin-6] | do not affect locomotor activity | didn’t decrease | no effect |  |  |  |  |  |  |  |  | 
CC(C)C[C@H](NC(=O)C1CCN(C(=O)[C@@H](N)Cc2ccc(O)cc2)CC1)C(=O)N[C@@H](CC(=O)O)C(=O)N[C@@H](CC(C)C)C(=O)N[C@@H](Cc1ccccc1)C(=O)O [analog 3, Tyr-Inp-Leu-Asp-Leu-Phe-OH] (H-Y[Inp]LDLF-OH) | do not affect locomotor activity | most efficiently |  | ~10% | significantly weakened | didn’t inhibit | did not abolish | most effectively reduced |  |  |  | 
Cc1cc(O)cc(C)c1C[C@H](N)C(=O)N1CCC(C(=O)N[C@@H](CC(C)C)C(=O)N[C@@H](CC(=O)O)C(=O)N[C@@H](CC(C)C)C(=O)N[C@@H](Cc2ccccc2)C(=O)O)CC1 [analog 5, Dmt-Inp-Leu-Asp-Leu-Phe-OH] (H-[Dmt][Inp]LDLF-OH) | do not affect locomotor activity | active only at the highest dose |  | ~10% | significantly weakened | didn’t inhibit | some slight µ- and δ-opioid receptor antagonist effect is evident | most effectively reduced | most significant inhibition | comparable to the level determined in unstimulated cells |  | 
Cc1cc(O)cc(C)c1C[C@H](N)C(=O)N1CCC[C@H]1C(=O)N[C@@H](CC(C)C)C(=O)N[C@@H](CC(=O)O)C(=O)N[C@@H](CC(C)C)C(=O)N[C@@H](Cc1ccccc1)C(=O)O [analog 1, Dmt-Pro-Leu-Asp-Leu-Phe-OH] (H-[Dmt]PLDLF-OH) |  |  |  |  | significantly weakened | didn’t inhibit | did not abolish |  |  |  | showed the potency to suppress | 
Cc1cc(O)cc(C)c1C[C@H](N)C(=O)N1CCC[C@@H](C(=O)N[C@@H](CC(C)C)C(=O)N[C@@H](CC(=O)O)C(=O)N[C@@H](CC(C)C)C(=O)N[C@@H](Cc2ccccc2)C(=O)O)C1 [analog 4, Dmt-(R)-Nip-Leu-Asp-Leu-Phe-OH] (H-[Dmt][Nip(3R)]LDLF-OH) |  |  |  |  |  |  |  | most effectively reduced |  |  |  | 
CC(C)C[C@H](NC(=O)C1CCN(C(=O)[C@@H](N)Cc2ccc(O)cc2)CC1)C(=O)N[C@@H](CC(=O)O)C(=O)N[C@@H](CC(C)C)C(=O)N[C@@H](Cc1ccccc1)C(N)=O [analog 7, Tyr-Inp-Leu-Asp-Leu-Phe-NH2] (H-Y[Inp]LDLF-NH2) | do not affect locomotor activity | most efficiently |  | ~10% | significantly weakened | didn’t inhibit | did not abolish | most effectively reduced |  |  |  | ~125%
